Measurements: patent US5912351A, “Anhydrous 1,4-Dihydropyridines and salts thereof” (Recordati, S.A. Chemical and Pharmaceutical Company, priority 1995, dated 1999)
Structures can show the parent of a compound that is named as a salt.

Tests used:
[1] = High temperature stress stability at 100° C., HPLC assay; assay type: physicochemical; conditions: in the light
Experimental: The two samples, lercanidipine hydrochloride hemihydrate, and anhydrous lercanidipine hydrochloride were heated, in the light, at 100° C. for 48 hours. The samples were tested at the following times; 0 hours, 24 hours, and 48 hours. The purity of the lercanidipine was checked by HPLC analysis under the following conditions:
Column: m-Bondapak C-18 (Waters), particle size […], 300×3.9 mm i.d.

[2] = Water content at 75% relative humidity (Karl-Fisher); assay type: physicochemical
Experimental: Samples of anhydrous lercanidipine hydrochloride and lercanidipine hydrochloride hemihydrate were placed in open polyethylene bags in flasks and heated, in the dark, at 60° C. and 75% relative humidity. The samples were checked for hygroscopicity by determination of the water content using the Karl-Fisher method. The samples were tested at 8 and 15 days.
Two additional samples of the anhydrous lercanidipine hydrochloride and lercanidipine hydrochloride hemihydrate were placed in open polyethylene bags in flasks and heated, in the dark, at 40° C. and 75% relative humidity. The samples were tested as described above at 8 and 15 days.

[3] = system: mouse peritoneal macrophages; test: Cholesteryl ester hydrolysis in macrophages; assay type: cell-based; conditions: AcLDL 50 μg/ml + S-58035 1 μg/ml
Experimental: These experiments were performed by incubating cells preloaded with [^3 H]cholesterol in the presence of the specific ACAT inhibitor S-58035. The blockage of intracellular reesterification of cholesterol allowed the assessment of the ability of cells to hydrolyze the accumulated cholesterol esters.
For studies involving the quantitation of the hydrolysis of cholesteryl esters in cytoplasmic lipid droplets, cells, prepared according to the procedure in Example 6A, are loaded with cholesteryl esters by exposure for 24 hours to the medium containing 50 μg/ml acetyl LDL. [1,2-^3 H]Cholesterol is included in all loading media at a concentration of 0.5 μCi/ml. After 24 hours loading period, during which time the radiolabeled cholesterol is incorporated and esterified, the cell monolayers are washed and incubated an additional 24 hours in medium containing 0.1% bovine serum albumin to allow the intracellular pools of labelled cholesterol to equilibrate to the same specific activity. To quantitate cholesteryl ester hydrolysis, the loaded cells are incubated for up to 24 hours in Dulbecco's minimum essential medium containing, 0.1% bovine serum albumin, lercanidipines, and the compound S-58035, an inhibitor of acyl-coenzyme A-cholesterol acyltransferase. The inhibition of acyl-coenzyme A-cholesterol acyltransferase prevents the reesterification of any free cholesterol generated by cholesteryl ester hydrolysis and thus allows assessment of the activity of the hydrolase. The hydrolysis of the cholesteryl esters is quantified by determining the decrease of radiolabeled cholesteryl esters (E. H. Harrison et al., J. Lipid. Res. 31: […] with phosphate buffered saline and extracted with hexane:isopropanol (3:2 v/v). The media were extracted with chloroform:methanol (2:1 v/v). After solvent removal, free and esterified cholesterol were separated by TLC (isooctane:diethyl ether:acetic acid, 75:25:2 by volume). Cholesterol mass or radioactivity of the spots were determined by an enzymatic method (Boehringer Mannheim, Germany) (F. Bernini et al., Atherosclerosis 104: 19 (1993)) or by liquid scintillation counting (Lipoluma Lumac, Landgraf, The Netherlands) respectively.

Structure (SMILES): COC(=O)C1=C(C)NC(C)=C(C(=O)OC(C)(C)CN(C)CCC(c2ccccc2)c2ccccc2)C1c1cccc([N+](=O)[O-])c1 (stereo not shown) [Anhydrous, METHYL 1,1-N-TRIMETHYL-N-(3,3-DIPHENYLPROPYL)-2-AMINOETHYL 1,4-DIHYDRO-2,6-DIMETHYL-4-(3-NITROPHENYL) PYRIDINE-3,5-DICARBOXYLATE (LERCANIDIPINE) HYDROCHLORIDE]
- Assay % by HPLC ([1]; 0 hr, HYDROCHLORIDE): 99.74%
- remaining at 24 h ([1]; solid, 24 hrs): 99.4%
- remaining at 48 h ([1]; solid, 48 hrs): 99%
- Water Content ([2]; 40° C., 0 days, HYDROCHLORIDE): 0.28%
- Water Content ([2]; 40° C., 8 days, HYDROCHLORIDE): 0.3%
- Water Content ([2]; 40° C., 15 days, HYDROCHLORIDE): 0.32%
- Water Content ([2]; 60° C., 0 days, HYDROCHLORIDE): 0.28%
- Water Content ([2]; 60° C., 8 days, HYDROCHLORIDE): 0.85%
- Water Content ([2]; 60° C., 15 days, HYDROCHLORIDE): 0.77%

Structure (SMILES): CCCCCCCCCC[Si](C)(C)CCC(=O)NC(Cc1ccc(C)cc1)c1ccccc1 (stereo not shown) [Example S-58035, reference compound]
- % of cholesteryl ester [3]: 15 ± 0.5%

Structure (SMILES): COC(=O)C1=C(C)NC(C)=C(C(=O)OC(C)(C)CN(C)CCC(c2ccccc2)c2ccccc2)C1c1cccc([N+](=O)[O-])c1 (stereo not shown) [Hemihydrate, Lercanidipine hydrochloride hemihydrate, reference compound]
- Assay % by HPLC ([1]; 0 hr): 99.85%
- Assay % by HPLC ([1]; 24 hrs, hydrochloride hemihydrate, 1440 min): 92.35%
- Assay % by HPLC ([1]; 48 hrs, hydrochloride hemihydrate, 2880 min): 90.96%
- Water Content ([2]; 40° C., 0 days): 1.42%
- Water Content ([2]; 40° C., 8 days): 3.14%
- Water Content ([2]; 40° C., 15 days): 3.05%
- Water Content ([2]; 60° C., 0 days): 1.42%
- Water Content ([2]; 60° C., 8 days): 4%
- Water Content ([2]; 60° C., 15 days): 4.04%
